Test results taken from publication PMC12022901 (Frontiers in Pharmacology, 2025).

How the values were obtained:
[1] = cited from earlier work
[2] = design: method as in Brown, 2014; settings: ref Brown, 2014; cited from earlier work
[3] = tested on: Coagulation markers (activated partial thromboplastin time and international normalized ratio); assay: Coagulation markers measured 3 h post dose; assay type: in vivo, human (healthy volunteers)
CYP3A = CYP3A activity assessed by pharmacokinetics of microdosed midazolam (limited sampling, AUC2-4, eCLmet)
Experimental: We simultaneously quantified the effect on CYP3A activity with an oral midazolam microdose (30 µg) (Figure 1).
Carbamazepine, gabapentin, and pregabalin were dosed to steady-state during a treatment period of 21 d for carbamazepine, 13 d for gabapentin, and 21 d for pregabalin, followed by the evaluation of their perpetrator effects. Steady-state was ensured until the last blood sample was drawn. Carbamazepine was titrated to a maximum dose of 200 mg twice a day, if possible. If this dose could not be reached due to adverse events, carbamazepine was titrated to therapeutic plasma concentrations (5–10 μg/mL), with the lower range chosen to ensure the safety of the participants. Gabapentin was administered at a dose of 400 mg three times a day and pregabalin at a dose of 300 mg twice a day. Single-dose pharmacokinetics of the microdosed FXaI were assessed at baseline and at the end of the above mentioned treatment period, at steady-state of the perpetrator.
All collected samples were processed within 20 min and plasma was stored at ≤ −20°C until analysis.
Non-compartmental analyses were conducted to assess the pharmacokinetics of the FXaI and midazolam utilizing Phoenix WinNonlin 8.3 (Certara, Inc., Princeton, NJ, United States). Cmax and the time to reach Cmax (tmax) were directly obtained from the concentration data. The area under the concentration-time curve from 0 to infinity ( AUC∞ ) was determined using the log-linear trapezoidal rule with extrapolation to infinity. The half-life (t1/2) was calculated as ln2/λz , with the elimination rate constant λz being estimated utilizing log-linear regression of the elimination phase. Apparent oral CL (CL/F) and volume of distribution (Vz/F) were calculated using standard equations for non-compartmental analysis.

[4] = Safety: adverse events in the trial cohorts; settings: cohort of the named antiepileptic drug
clinical = settings: for Vd/F: Vz/F; for half-life: t1/2, oral microdose cocktail; for exposure (AUC) during carbamazepine relative to baseline: microdosed FXaI
[5] = Pharmacokinetics of factor Xa inhibitors at baseline and at gabapentin steady-state (open-label fixed-sequence DDI trial); settings: human, in vivo, po, oral microdose cocktail, GM
From the text: (§1) A p-value < 0.05 was considered significant.

[6] = Pharmacokinetics of factor Xa inhibitors at baseline and at pregabalin steady-state (open-label fixed-sequence DDI trial); settings: human, in vivo, po, oral microdose cocktail, GM
From the text: as §1

[7] = healthy volunteers, 7-d rifampin treatment, ref Mendell et al., 2015
[8] = 180 min after edoxaban 60 mg alone
[9] = 180 min after edoxaban 60 mg with carbamazepine
[10] = carbamazepine cohort, at carbamazepine steady-state, with edoxaban 60 mg
[11] = carbamazepine cohort, at carbamazepine steady-state, with microdosed FXaI
[12] = carbamazepine cohort, baseline, with edoxaban 60 mg
[13] = gabapentin cohort, at gabapentin steady-state, with edoxaban 60 mg
[14] = gabapentin cohort, at gabapentin steady-state, with microdosed FXaI
[15] = gabapentin cohort, baseline, with edoxaban 60 mg
[16] = pregabalin cohort, at pregabalin steady-state, with edoxaban 60 mg
[17] = pregabalin cohort, at pregabalin steady-state, with microdosed FXaI
[18] = pregabalin cohort, baseline, with edoxaban 60 mg
[19] = human, in vivo, po, oral microdose cocktail (25 µg apixaban, 50 µg edoxaban, 25 µg rivaroxaban), baseline, GM
[20] = human, in vivo, po, oral microdose cocktail, during carbamazepine steady-state, GM
[21] = human, in vivo, po, oral microdose cocktail, baseline, GM
[22] = human, in vivo, po, oral microdose cocktail, at carbamazepine steady-state, GM
[23] = human, in vivo, po, at carbamazepine steady-state, GM
[24] = human, in vivo, po, baseline, GM
[25] = oral microdose cocktail, at carbamazepine steady-state, GM
[26] = oral microdose cocktail, baseline, GM

CN1CCc2nc(C(=O)N[C@@H]3C[C@@H](C(=O)O)CC[C@@H]3NC(=O)C(=O)Nc3ccc(Cl)cn3)sc2C1 [Edoxaban M-4]
AUC increase [1, 7]: 2.86 fold
Cmax increase [1, 7]: 5.06 fold
anticoagulant effects of M-4 and edoxaban [2]: comparable anticoagulant effects

CN1CCc2nc(C(=O)N[C@@H]3C[C@@H](C(=O)N(C)C)CC[C@@H]3NC(=O)C(=O)Nc3ccc(Cl)cn3)sc2C1 [Edoxaban, edoxaban]
INR, mean [3, 8]: 1.23
aPTT, mean [3, 8]: 33.63
INR, mean [3, 9]: 1.14
aPTT, mean [3, 9]: 29.56
coagulation changes induced by edoxaban ([3]; therapeutic dose or microdose, with gabapentin or pregabalin (data not shown)): not influenced
AUC reduction ([1]; co-administration with rifampin, ref Lixiana, 2017): up to 35%

Cc1ncc2n1-c1ccc(Cl)cc1C(c1ccccc1F)=NC2 [Midazolam, midazolam]
eCLmet (CYP3A; [10]): 5654 mL/h
eCLmet GMR to baseline (CYP3A; [10]): 5.54
eCLmet (CYP3A; [11]): 5636 mL/h
eCLmet GMR to baseline (CYP3A; [11]): 5.52
eCLmet (CYP3A; [12]): 997 mL/h
eCLmet GMR to baseline (CYP3A; [12]): 0.98
eCLmet (CYP3A; carbamazepine cohort, baseline, with microdosed FXaI): 1021 mL/h
decrease of midazolam AUC2-4 (CYP3A; co-administration of carbamazepine): 82%
eCLmet (CYP3A; [13]): 923 mL/h
eCLmet GMR to baseline (CYP3A; [13]): 0.99
eCLmet (CYP3A; [14]): 957 mL/h
eCLmet GMR to baseline (CYP3A; [14]): 1.02
eCLmet (CYP3A; [15]): 931 mL/h
eCLmet GMR to baseline (CYP3A; [15]): 1.0
eCLmet (CYP3A; gabapentin cohort, baseline, with microdosed FXaI): 936 mL/h
effect on midazolam pharmacokinetics (CYP3A; gabapentin steady-state): did not alter
eCLmet (CYP3A; [16]): 1306 mL/h
eCLmet ratio to baseline (CYP3A; [16]): 1.23
eCLmet (CYP3A; [17]): 1198 mL/h
eCLmet ratio to baseline (CYP3A; [17]): 1.13
eCLmet (CYP3A; [18]): 1201 mL/h
eCLmet ratio to baseline (CYP3A; [18]): 1.13
eCLmet (CYP3A; pregabalin cohort, baseline, with microdosed FXaI): 1061 mL/h
effect on midazolam pharmacokinetics (CYP3A; pregabalin steady-state): did not alter

NC(=O)N1c2ccccc2C=Cc2ccccc21 [carbamazepine]
adverse events deemed possibly related to the trial medication [4]: 19
adverse events overall [4]: 29
participants with adverse events [4]: 12 of 13
severe or serious adverse events [4]: none was serious, one was severe

NCC1(CC(=O)O)CCCCC1 [gabapentin]
adverse events deemed possibly related to the trial medication [4]: 21
adverse events overall [4]: 39
participants with adverse events [4]: 11 of 11
severe or serious adverse events [4]: none was severe or serious

CC(C)C[C@H](CN)CC(=O)O [pregabalin]
adverse events deemed possibly related to the trial medication [4]: 25
adverse events overall [4]: 37
participants with adverse events [4]: 11 of 12
severe or serious adverse events [4]: none was severe or serious

COc1ccc(-n2nc(C(N)=O)c3c2C(=O)N(c2ccc(N4CCCCC4=O)cc2)CC3)cc1 [µ-apixaban, apixaban]
AUC(0-inf) (clinical; [19]): 5.9 ng·h/mL
AUC(0-inf) (clinical; [20]): 3.92 ng·h/mL
Cmax (clinical; [21]): 0.719 ng/mL
Cmax (clinical; [20]): 0.634 ng/mL
Vd/F (clinical; [22]): 36 L
Vd/F (clinical; [21]): 36 L
half-life (clinical; [23]): 3.95 h
half-life (clinical; [24]): 5.97 h
exposure (AUC) during carbamazepine relative to baseline (clinical): 66%
tmax (clinical; oral microdose cocktail (solution), baseline, GM): 1.6 h
CL/F (clinical; [25]): 6.4 L/h
tmax (clinical; [25]): 1.72 h
CL/F (clinical; [26]): 4.2 L/h
AUC(0-inf) ([5]; baseline): 6.95 ng·h/mL
AUC(0-inf) ([5]; during gabapentin steady-state): 6.48 ng·h/mL
Cmax ([5]; baseline): 0.822 ng/mL
Cmax ([5]; during gabapentin steady-state): 0.775 ng/mL
AUC(0-inf) ([6]; before pregabalin): 6.2 ng·h/mL
AUC(0-inf) ([6]; during pregabalin steady-state): 6.07 ng·h/mL
Cmax ([6]; before pregabalin): 0.782 ng/mL
Cmax ([6]; during pregabalin steady-state): 0.775 ng/mL
reduction in exposure ([1]; combined use with inducers of both CYP3A4 and P-gp such as carbamazepine, ref Eliquis, 2024): ~50%

O=C(NC[C@H]1CN(c2ccc(N3CCOCC3=O)cc2)C(=O)O1)c1ccc(Cl)s1 [µ-rivaroxaban, rivaroxaban]
tmax (clinical; human, in vivo, po): 0.817 h
AUC(0-inf) (clinical; [19]): 3.1 ng·h/mL
AUC(0-inf) (clinical; [20]): 1.73 ng·h/mL
Cmax (clinical; [21]): 0.695 ng/mL
Cmax (clinical; [20]): 0.524 ng/mL
Vd/F (clinical; [22]): 63 L
Vd/F (clinical; [21]): 61 L
half-life (clinical; [23]): 3.02 h
half-life (clinical; [24]): 5.23 h
exposure (AUC) during carbamazepine relative to baseline (clinical): 56%
CL/F (clinical; [25]): 14 L/h
tmax (clinical; [25]): 0.817 h
CL/F (clinical; [26]): 8.0 L/h
AUC(0-inf) ([5]; baseline): 3.23 ng·h/mL
AUC(0-inf) ([5]; during gabapentin steady-state): 2.98 ng·h/mL
Cmax ([5]; baseline): 0.718 ng/mL
Cmax ([5]; during gabapentin steady-state): 0.688 ng/mL
AUC(0-inf) ([6]; before pregabalin): 3.08 ng·h/mL
AUC(0-inf) ([6]; during pregabalin steady-state): 3.03 ng·h/mL
Cmax ([6]; before pregabalin): 0.783 ng/mL
Cmax ([6]; during pregabalin steady-state): 0.744 ng/mL
